Data: patent US20140308733A1, “METHOD FOR INDUCING GERMINATION OF SPORE FORMING BACTERIUM” (CALPIS CO., LTD., priority 2011, published 2014)

Experiments:
Assay in all cases: Germination induction, change of turbidity (630 nm) of spore suspension
Type in all cases: cell-based
Conditions in all cases: 300 ppm; for turbidity (630 nm): 37° C., 150 rpm
[1] = tested on: Bacillus licheniformis (NBRC 12200)
Procedure: (§1) It is possible to determine whether spores have germinated, after measuring an OD 630 value (turbidity at 630 nm) of the liquid culture, based on decrease in the value (Literature: Microbiology, (1950), 4, 3, 330-338). Briefly, bacterial cells after culturing are washed with distilled water and diluted with distilled water to OD 630=1.0, which is then mixed with an equal volume of a germination induction solution, and the turbidity at 630 nm is measured by a UV spectrophotometer at room temperature.
(§2) TS culture media (Difco, Trypticase Soy Broth) were inoculated respectively with 11 strains listed in Table 1 and cultured at 50° C. with respect to Geobacillus stearothermophilus NBRC13737 and Aeribacillus pallidus TK6004 (FERM BP-08597), and at 37° C. with respect to the other 9 strains, until respective colonies were established. Then with respect to each of 11 strains, a loop full of a single colony was scratched by a platinum loop and suspended in 500 μL of sterilized water. In 1000 g of water was dissolved 8.0 g of a nutrient agar culture medium (Difco, Nutrient Broth), followed by high pressure steam sterilization (121° C., 15 min) to prepare a plate medium. The nutrient agar culture medium was smeared with each 100 μL of the suspension and cultured at 37° C. for 3 days.
(§3) Then, bacterial cells were suspended using a platinum loop in 500 μL of sterilized water, and the bacterial suspension was subjected to a heat shock at 65° C. for 35 min. Each 100 μL of the heat-shocked bacterial suspension and a not-heat-shocked bacterial suspension were smeared on the TS culture media respectively and cultured at 50° C. or 37° C. for 1 day.
(§4) After confirming the spore formation, the bacterial cells were collected by a bacteria spreader, suspended in 10 mL of sterilized distilled water, and then centrifuged (8340×g, 4° C., 15 min). The supernatant was removed and thereafter the bacterial cells were washed twice with 10 mL of sterilized water. After washing, the bacterial cells were suspended in 5 mL of sterilized water, and the suspension was filtrated by sterilized Kimwipes. The filtrate was centrifuged (8340×g, 4° C., 15 min) to remove the supernatant, and the rest was adjusted to the turbidity (at 630 nm) of 1.0 with sterilized water.
(§5) After dissolving with stirring using a stirring rod with a propeller, filtration sterilization (0.45 μm filter) was conducted to prepare each 600 ppm-solution.
(§6) Five hundred (500) μL of each solution and 500 μL of each bacterial spore suspension were mixed. […] Defining the time point of mixing as the reaction initiation (0 min), and continuing shaking (150 rpm) at 37° C., the turbidity (630 nm) was measured at 10, 20, 30, 40, 50, 60, 90, 120, and 180 min after the reaction initiation.
(§7) Since the turbidity at 630 nm decreases by germination of spores, it has been known that the turbidity at 630 nm can be used to determine the germination rate.

[2] = tested on: Bacillus licheniformis (NBRC 14206)
Procedure: as §1, §2, §3, §4, §5, §6, §7

[3] = tested on: Geobacillus stearothermophilus (NBRC 13737)
Procedure: as §1, §2
as §3, with “day. As the results of the cultures, colony formation was confirmed also with respect to the heat-shocked bacterial suspensions, to confirm that spores were formed for all of 11 strains. Further, since the bacteria were not stained by Gram staining, it was reconfirmed that spores were formed.” for “day.”
as §4, §5, §6, §7

[4] = tested on: Bacillus licheniformis (NBRC 12195)
Procedure: as §1, §2
as §3, with “day. As the results of the cultures, colony formation was confirmed also with respect to the heat-shocked bacterial suspensions, to confirm that spores were formed for all of 11 strains. Further, since the bacteria were not stained by Gram staining, it was reconfirmed that spores were formed.” for “day.”
as §4, §5, §6, §7

[5] = tested on: Bacillus amyloliquefaciens (NBRC 3032)
Procedure: as §1, §2
as §3, with “day. As the results of the cultures, colony formation was confirmed also with respect to the heat-shocked bacterial suspensions, to confirm that spores were formed for all of 11 strains. Further, since the bacteria were not stained by Gram staining, it was reconfirmed that spores were formed.” for “day.”
as §4, §5, §6, §7

[6] = tested on: Aeribacillus pallidus TK6004 (FERM BP-08597)
Procedure: as §1, §2
as §3, with “day. As the results of the cultures, colony formation was confirmed also with respect to the heat-shocked bacterial suspensions, to confirm that spores were formed for all of 11 strains. Further, since the bacteria were not stained by Gram staining, it was reconfirmed that spores were formed.” for “day.”
as §4, §5, §6, §7

[7] = tested on: Bacillus subtilis C-3102 (FERM BP-1096)
Procedure: as §1, §2
as §3, with “day. As the results of the cultures, colony formation was confirmed also with respect to the heat-shocked bacterial suspensions, to confirm that spores were formed for all of 11 strains. Further, since the bacteria were not stained by Gram staining, it was reconfirmed that spores were formed.” for “day.”
as §4, §5, §6, §7

[8] = 0 min after reaction initiation
[9] = 10 min after reaction initiation
[10] = 20 min after reaction initiation
[11] = 30 min after reaction initiation
[12] = 40 min after reaction initiation
[13] = 50 min after reaction initiation
[14] = 60 min after reaction initiation
[15] = 90 min after reaction initiation
[16] = 120 min after reaction initiation
[17] = 180 min after reaction initiation

COc1cc(/C=C/C(=O)O)ccc1O [Ferulic acid, ferulic acid]
turbidity (630 nm) [1, 8]: 0.601 | turbidity (630 nm) [1, 9]: 0.569 | turbidity (630 nm) [1, 10]: 0.563 | turbidity (630 nm) [1, 11]: 0.543 | turbidity (630 nm) [1, 12]: 0.536 | turbidity (630 nm) [1, 13]: 0.517 | turbidity (630 nm) [1, 14]: 0.503 | turbidity (630 nm) [1, 15]: 0.460 | turbidity (630 nm) [1, 16]: 0.417 | turbidity (630 nm) [1, 17]: 0.334 | germination confirmed by turbidity decrease ([1]; up to 180 min): the turbidity decreased | turbidity (630 nm) [2, 8]: 0.589 | turbidity (630 nm) [2, 9]: 0.583 | turbidity (630 nm) [2, 10]: 0.573 | turbidity (630 nm) [2, 11]: 0.565 | turbidity (630 nm) [2, 12]: 0.553 | turbidity (630 nm) [2, 13]: 0.547 | turbidity (630 nm) [2, 14]: 0.530 | turbidity (630 nm) [2, 15]: 0.498 | turbidity (630 nm) [2, 16]: 0.474 | turbidity (630 nm) [2, 17]: 0.463 | germination confirmed by turbidity decrease ([2]; up to 180 min): the turbidity decreased | turbidity (630 nm) [3, 8]: 0.560 | turbidity (630 nm) [3, 9]: 0.551 | turbidity (630 nm) [3, 10]: 0.537 | turbidity (630 nm) [3, 11]: 0.541 | turbidity (630 nm) [3, 12]: 0.489 | turbidity (630 nm) [3, 13]: 0.473 | turbidity (630 nm) [3, 14]: 0.459 | turbidity (630 nm) [3, 15]: 0.397 | turbidity (630 nm) [3, 16]: 0.326 | turbidity (630 nm) [3, 17]: 0.202 | germination confirmed by turbidity decrease ([3]; up to 180 min): the turbidity decreased | turbidity (630 nm) [4, 8]: 0.541 | turbidity (630 nm) [4, 9]: 0.521 | turbidity (630 nm) [4, 10]: 0.502 | turbidity (630 nm) [4, 11]: 0.480 | turbidity (630 nm) [4, 12]: 0.449 | turbidity (630 nm) [4, 13]: 0.430 | turbidity (630 nm) [4, 14]: 0.392 | turbidity (630 nm) [4, 15]: 0.368 | turbidity (630 nm) [4, 16]: 0.324 | turbidity (630 nm) [4, 17]: 0.290 | germination confirmed by turbidity decrease ([4]; up to 180 min): the turbidity decreased | turbidity (630 nm) [5, 8]: 0.526 | turbidity (630 nm) [5, 9]: 0.505 | turbidity (630 nm) [5, 10]: 0.480 | turbidity (630 nm) [5, 11]: 0.431 | turbidity (630 nm) [5, 12]: 0.397 | turbidity (630 nm) [5, 13]: 0.353 | turbidity (630 nm) [5, 14]: 0.316 | turbidity (630 nm) [5, 15]: 0.269 | turbidity (630 nm) [5, 16]: 0.245 | turbidity (630 nm) [5, 17]: 0.216 | germination confirmed by turbidity decrease ([5]; up to 180 min): the turbidity decreased | turbidity (630 nm) [6, 8]: 0.484 | turbidity (630 nm) [6, 9]: 0.450 | turbidity (630 nm) [6, 10]: 0.393 | turbidity (630 nm) [6, 11]: 0.276 | turbidity (630 nm) [6, 12]: 0.193 | turbidity (630 nm) [6, 13]: 0.124 | turbidity (630 nm) [6, 14]: 0.080 | turbidity (630 nm) [6, 15]: 0.040 | turbidity (630 nm) [6, 16]: 0.016 | turbidity (630 nm) [6, 17]: 0.016 | germination confirmed by turbidity decrease ([6]; up to 180 min): the turbidity decreased | turbidity (630 nm) [7, 8]: 0.602 | turbidity (630 nm) [7, 9]: 0.578 | turbidity (630 nm) [7, 10]: 0.558 | turbidity (630 nm) [7, 11]: 0.548 | turbidity (630 nm) [7, 12]: 0.535 | turbidity (630 nm) [7, 13]: 0.506 | turbidity (630 nm) [7, 14]: 0.493 | turbidity (630 nm) [7, 15]: 0.471 | turbidity (630 nm) [7, 16]: 0.430 | turbidity (630 nm) [7, 17]: 0.335 | germination confirmed by turbidity decrease ([7]; up to 180 min): the turbidity decreased
